# Test results taken from patent publication US9636329B2, “Methods of treating cancer with glut inhibitors and oxidative phosphorylation inhibitors” (Northwestern University, priority 2012, dated 2017).
# Columns and labels:
# U266 cells = experiment: Cell death by DAPI staining with doxorubicin at 11 mM or 0.5 mM glucose (FIG. 1C); assay type: cell-based; conditions: resistant U266 cells; glucose-free culture (0.5 mM vs 11 mM glucose); 48 hours
# Procedure: (§1) FIG. 1. Glucose metabolism sustains myeloma cell proliferation, viability and promotes chemoresistance: (A) Primary myeloma cells, normal B lymphocytes (NBL) and four MM cell lines were cultured in medium containing 0 or 5 mM glucose for 48 (NBL, MM cell lines) or 72 (MM Patient) hours. Cell viability was determined by flow cytometric analysis of AnnexinV/DAPI staining and normalized to 5 mM samples. Data are means±SEM (n=2 for MM cell lines and NBL. n=1 for MM Patient sample). (B) MM cell lines were cultured in various glucose concentrations for 72 hours. Viable cell quantities were determined by MTS assay (represented by absorbance at 490 nm) and normalized to 5 mM samples. U266 cells (C) and normal PBMC (D) were cultured in 11 mM or 0.5 mM glucose-containing medium for 48 hours in the presence of the indicated concentrations of doxorubicin. Cell death was determined by OAPI staining. […] Glucose consumption rates and lactate production rates were determined and normalized to control shRNA-expressing cells. (G-I) Cells from part (E) were analyzed for viability and proliferation. (J) JJN3 cells transduced with control or GLUT1-targeted shRNA and analyzed for viability and proliferation. Viable cell densities are expressed as fold change relative to the day 0 reading of control shRNA-expressing cells. Cells from parts G-J were evaluated for viability via trypan blue exclusion. […]
# normal PBMC = experiment: Cell death by DAPI staining with doxorubicin at 11 mM or 0.5 mM glucose (FIG. 1D); assay type: cell-based; conditions: 48 hours
# Procedure: as §1
# MM cells = experiment: Viability of MM cells, glucose deprivation / ritonavir / metformin; assay type: cell-based; conditions: absence of glucose; metformin 5 mM; 72 hrs
# Description: (§2) To investigate whether mitochondrial oxidative phosphorylation can render MM cells resistant to glucose-deprivation we treated cells with metformin. which is a known mitochondrial complex 1 inhibitor [25-27]).
# L363 cells [1] = experiment: Viability of MM cell lines by Annexin/DAPI staining (FIG. 2); assay type: cell-based; conditions: glucose-deprived L363 cells + galactose 10 mM; metformin 5 mM; 72 hrs
# Description: as §2
# JJN3 cells [2] = conditions: JJN3 cultured in the absence of glucose; metformin 5 mM; 72 hrs
# Description: as §2
# MM = experiment: Ritonavir anti-myeloma effects in myeloma cell lines and patient samples; assay type: cell-based
# GLUT1 = biological target: T1, GLUT1 (Homo sapiens, UniProt P11166); conditions: cited from earlier work
# T1 sequence (P11166 1-492): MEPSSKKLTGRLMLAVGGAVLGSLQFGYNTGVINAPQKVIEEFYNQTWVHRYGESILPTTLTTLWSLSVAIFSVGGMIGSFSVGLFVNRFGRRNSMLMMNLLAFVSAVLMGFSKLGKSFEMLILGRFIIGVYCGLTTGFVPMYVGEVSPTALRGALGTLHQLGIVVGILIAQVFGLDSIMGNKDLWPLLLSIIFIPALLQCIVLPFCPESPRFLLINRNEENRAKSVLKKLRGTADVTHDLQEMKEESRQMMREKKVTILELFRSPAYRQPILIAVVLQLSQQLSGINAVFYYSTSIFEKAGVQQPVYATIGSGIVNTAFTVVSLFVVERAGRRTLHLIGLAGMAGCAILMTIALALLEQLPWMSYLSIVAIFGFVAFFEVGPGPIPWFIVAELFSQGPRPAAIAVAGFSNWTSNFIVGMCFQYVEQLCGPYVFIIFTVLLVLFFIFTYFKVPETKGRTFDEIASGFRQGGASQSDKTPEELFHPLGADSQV
# GLUT4 = biological target: T2, GLUT4 (Homo sapiens, UniProt P14672); conditions: cited from earlier work
# T2 sequence (P14672 1-509): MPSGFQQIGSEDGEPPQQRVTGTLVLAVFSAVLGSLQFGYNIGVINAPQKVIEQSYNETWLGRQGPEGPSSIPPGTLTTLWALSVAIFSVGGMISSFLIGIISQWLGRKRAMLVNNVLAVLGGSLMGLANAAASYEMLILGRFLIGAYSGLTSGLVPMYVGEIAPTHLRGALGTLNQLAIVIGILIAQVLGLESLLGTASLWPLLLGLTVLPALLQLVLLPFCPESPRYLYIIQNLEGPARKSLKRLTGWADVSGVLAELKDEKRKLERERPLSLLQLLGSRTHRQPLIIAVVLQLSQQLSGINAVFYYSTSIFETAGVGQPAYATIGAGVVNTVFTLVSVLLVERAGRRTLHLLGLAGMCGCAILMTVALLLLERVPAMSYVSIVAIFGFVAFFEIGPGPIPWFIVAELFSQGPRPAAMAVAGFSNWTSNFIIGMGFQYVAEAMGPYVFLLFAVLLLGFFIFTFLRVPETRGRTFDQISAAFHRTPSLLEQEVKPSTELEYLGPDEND
# NCI-60 cell lines = experiment: NCI-60 panel viability, 48 hr MTS assay (FIG. 5); assay type: cell-based; conditions: read-out: median reduction of viability
# Description: FIG. 5. […] 48 hr MTS assay, n=3+/−SEM, p<0.05
# GLUT4 activity may be prevalent across multiple cancers. To examine the dependency of other cancers on GLUT4 activity, we utilized the NCI-60 cancer cell line panel. […] The NCI-60 lines are representative of genetic heterogeneity within each cancer group. Therefore, it is possible that we may detect a role for GLUT4 in a subset of cancers within each group connected to a specific genotype.
# L363 cells [3] = experiment: Oxygen consumption rate (OCR), SeaHorse XF24 bioanalyzer; assay type: cell-based; conditions: sensitive L363 cells; ritonavir 20 uM; 17 hrs
# Procedure: (§3) FIG. 3. […] Cellular viability was assessed before OCR measurements and 400,000 viable cells were plated in 5 replicates. Result is representative of an n=3.
# JJN3 cells [4] = experiment: as above; assay type: cell-based; conditions: resistant JJN3 cells; ritonavir alone
# Procedure: as §3
# [5] = achieved in humans; read-out: Cmax plasma concentration; cited from earlier work
structure (smiles),measurement,setting,value
COc1cccc2c1C(=O)c1c(O)c3c(c(O)c1C2=O)C[C@@](O)(C(=O)CO)C[C@@H]3O[C@H]1C[C@H](N)[C@H](O)[C@H](C)O1 [doxorubicin],sensitivity to doxorubicin (cell death),U266 cells,sensitizes
same,impact of doxorubicin on normal PBMC (cell death),normal PBMC,not impacted
CN(C)C(=N)N=C(N)N [metformin],sensitization of glucose deprived MM cells to metformin (viability),MM cells,sensitized to metformin
same,reversal of galactose rescue of viability,L363 cells [1],reverses the metabolic rescue provided by galactose
same,sensitization of glucose deprived cells to metformin (viability),JJN3 cells [2],sensitized to metformin
CC(C)c1nc(CN(C)C(=O)N[C@H](C(=O)N[C@@H](Cc2ccccc2)C[C@H](O)[C@H](Cc2ccccc2)NC(=O)OCc2cncs2)C(C)C)cs1 [ritonavir],chemosensitization of resistant MM to doxorubicin,MM,chemosensitizing
same,glucose inhibitory and growth inhibitory effects in MM,MM; physiologically achievable doses of ritonavir,significant glucose inhibitory and growth inhibitory effects
same,inhibition of cytoplasmic glucose binding site,GLUT1,competitively inhibit
same,inhibition of cytoplasmic glucose binding site,GLUT4,competitively inhibit
same,cytotoxicity at 20 µM,NCI-60 cell lines,≥ 50%
same,oxygen consumption rate (OCR),L363 cells [3],significant reduction in OCR
same,oxygen consumption rate (OCR),JJN3 cells [4],increase in oxygen consumption rate
same,Cmax,[5],16 µM
